Source: patent publication US9889087B2, “Intranasal delivery of β2-adrenergic receptor agonists for improving cognition in humans with down syndrome and compositions therefor” (priority 2014, dated 2018)
In brackets after ≈: the same amount, converted by molar mass. Like-named read-outs stand apart in the source and are kept apart here.

Tests used:
Ts65Dn and 2N mice [1] = experiment: BrdU cell proliferation count in the DG; format: in vivo, mouse; details: nadolol alone or nadolol + formoterol
Experimental: To identify proliferating cells, we used 5-bromo-2′-deoxyuridine (BrdU, Sigma). It was dissolved in PBS, filtered, and kept at 4° C. till use. After 15 days of treatment, each mouse was injected IP daily (50 mg/kg) with BrdU solution for 5 days. Thereafter, on day 21, all mice were anesthetized and transcardially perfused with ice-cold saline. The entire brain was immediately removed and the two hemispheres were separated. The left hemisphere was fixed overnight, cut, and stored. […] This was followed by incubation of sections in ABC.
Stereo-Investigator (MBF) was used to quantify the total number of BrdU-positive cells in the entire septo-temporal extent of DG. Following the outlining of the DG area at 4×, each positive profile was identified using a 100× oil objective. […] A Nanozoomer system (Hamamatsu 2.0 RS) was used to capture images of the entire slide in each case. High magnification images were captured using the Nanozoomer and stored.

Ts65Dn and 2N mice [2] = experiment: Cardiovascular and respiratory system monitoring (MouseOx vital signs); format: in vivo, mouse; details: 2N and Ts65Dn mice
Experimental: Cardiovascular and Respiratory System Monitoring. […] The monitor was attached to a collar clip with an LED sensor to enable recordings in free-moving mice. To minimize stress before recording, the collar clip was attached to each animal. After five minutes, heart rate, respiratory rate, and oxygen saturation were recorded using MOUSEOX® 6.3.13 for 10 minutes.

Ts65Dn and 2N mice [3] = test system: Ts65Dn and 2N mice
Experimental: b) Fear Conditioning. […] The fear conditioning tests were done using four FreezeScan chambers (Clever Sys) on days 4 and 5 after the start of the open field-testing. […] Four hours later, the mice were placed in the fear-conditioning chamber and their baseline activity was recorded for three minutes. At the end of this period, each mouse was exposed to five shocks (2 seconds each, 0.5 mA) with inter-trial intervals of 80 seconds. Twenty-four hours later, the mice were injected again, similar to the Training Day, and returned to the same fear-conditioning chamber for five minutes and their activity was recorded. Freezing was defined as a lack of movement for 3 frames.

Ts65Dn and 2N mice [4] = details: intranasal 2 mg per kg for 5 days
Text: Mice were acclimated to handling for a period of two weeks before the onset of intranasal dosing. Acclimation helped to ensure a correct body position for maximum effectiveness of awake intranasal drug delivery. In addition, acclimation prevented the occurrence of anxiety reaction after dosing. Mice spent about 2-3 days on each of nine steps before progressing to the next step, depending upon the animal's comfort to handling. The mouse's stress level was used as a measure of progress. To do this, the mouse's movements, the amount and frequency of urination, defecation, trembling and biting were assessed.
7) The mouse was placed back on top of his cage for 2 min. and the entire process was repeated starting 2 min. after delivery of the first drop. All together the mouse received four drops of up to 6 μl each totaling a maximum volume of 24 μl of solution.
The training began on the 4th day of intranasal dosing.
The testing day was done on the 5th and final day of dosing.
The first trial for each mouse was done 3 hours post-intranasal dose.
6) The number of incorrect arm entries was quantified. Entries into the goal arm were not counted as errors, even if the platform was not located. An entry was considered to occur when all four legs of the mouse had entered the alley completely and the mouse was parallel to the alley walls. […]

[5] = in vivo; cited from earlier work
physchem = details: water
Ts65Dn mice = details: cited from earlier work; for contextual learning: earlier studies

Structure (SMILES): CC(C)(C)NCC(O)COc1cccc2c1CC(O)C(O)C2 (stereo not shown) [nadolol]
- total number of BrdU-positive profiles in the DG (Ts65Dn and 2N mice [1]): 3,161.930±900

Structure (SMILES): COc1ccc(CC(C)NCC(O)c2ccc(O)c(NC=O)c2)cc1 (stereo not shown) [formoterol]
- effect on oxygen saturation (Ts65Dn and 2N mice [2]; formoterol together with nadolol): no significant effects
- effect on heart rate (Ts65Dn and 2N mice [2]; ANOVA treatment effect): No significant effects
- effect on respiratory rate (Ts65Dn and 2N mice [2]; ANOVA treatment effect): No significant effects
- contextual learning (Ts65Dn and 2N mice [3]; 2N mice): improvement
- contextual learning (Ts65Dn and 2N mice [3]; Ts65Dn mice, 6 months, vs nadolol only): significant improvement
- freezing behavior within first five minutes in context (Ts65Dn and 2N mice [3]; Ts65Dn mice, vs nadolol only): significant increase
- spatial learning (Ts65Dn and 2N mice [4]): significant improvement
- crossing of the blood brain barrier [5]: cross the blood brain barrier
- solubility (physchem): ~17.2 mg/mL (≈ 49.9 mM)

Structure (SMILES): N[C@H](C(=O)O)[C@H](O)c1ccc(O)c(O)c1 [L-DOPS, L-threo-3,4-dihydroxyphenylserine]
- contextual learning (Ts65Dn mice): restored

Structure (SMILES): O=C(NCCNCC(O)COc1ccc(O)cc1)N1CCOCC1 (stereo not shown) [xamoterol]
- contextual learning (Ts65Dn mice): significantly improve
- spatial learning and/or hyperactivity (Ts65Dn mice; later studies): did not improve
